Drawing on US20260274804A1, “PHENOLIC COMPOUNDS BLOCKING Nav 1.7 AND/OR Nav 1.8, PROCESSES FOR THE PREPARATION THEREOF, COMPOSITIONS, USES, METHODS OF TREATMENT USING SAME AND KITS” (Eurofarma Laboratórios S.A., priority 2023, published 2026), this text covers IC50 for 26 molecules.

In experiment [1] the target is T1, human sodium channels Nav 1.8 (Homo sapiens, UniProt Q9Y5Y9).
T1 construct: expressed in transfected cells
Briefly: Automated whole-cell voltage-clamp (ScreenPatch 384P) on CHO cells stably expressing Nav 1.8. It counts as cell-based. Particulars: inactivation step -40 mV 8 s, test pulse 10 mV, room temperature, exposure at least five minutes, read-out: Nav1.8 IC50. The method, then: (§1) Biological assays were performed on Chinese hamster ovary (CHO) cells that express human sodium channels Nav 1.8 or Nav 1.7 in a stable manner.
(§2) The experimental protocol voltage-clamp using the whole cell configuration was established on the automated ScreenPatch® 384P platform (SP384PE, Nanion Technologies, Livingston, NJ) and the results were recorded with a Nanion 384-well Patch Clamp chip (NPC) (Nanion Technologies, Livingston, NJ).
(§3) Formula I compounds were diluted in eight concentrations in the extracellular solution composed of physiological saline solution, buffered with HEPES (mM): NaCl, 137; KCl, 4; CaCl2, 3.8; MgCl2, 1; HEPES, 10; Glucose, 10; pH 7.4. The […], 50; CsF, 90; MgCl2, 5; EGTA, 5; HEPES, 10; pH 7.2. The duration of exposure of each compound with cells expressing Nav 1.7 or Nav 1.8 was at least five minutes, and the assays were performed at room temperature.
(§4) The measurements of the sodium currents of Nav 1.8 and Nav 1.7 were obtained using the voltage protocol described below.
(§5) A holding voltage of −100 mV was established followed by an inactivation voltage step at −40 mV for 8 seconds, followed by a step of −100 mV for 20 ms, followed by a 20 ms step for 10 mV for Nav 1.8 or 0 mV for Nav 1.7 (TP1A) before returning to the holding voltage of −100 mV.
(§6) The protocol was repeated at a frequency of 0.05 Hz and the amplitude of the current was quantified throughout the recording of the TP1A phase. The variation in the peak current amplitude was evaluated according to the Formula described below, after exposing the cells expressing the channels to each concentration of the different compounds:
(§7) [formula] • wherein […] and ITP1A,molecule represent the peaks of sodium current input into TP1A before exposure to the compound and in the presence of the compound, respectively.
(§8) The decrease in the peak current amplitude, after the exposure of the cells to the compounds, was used to calculate the percentage of relative blockage of the channels in relation to the positive control according to the Formula below:
(§9) [formula] • where % V and % CP represent the means of the values of current inhibition with a vehicle (DMSO) and positive controls, respectively. The sodium currents of the positive control were considered as 100%:
(§10) [formula] • wherein [Test] represents the concentration of the molecule evaluated, IC50 is the concentration of the compound that generates half of the maximum inhibition, N is Hill's coefficient, and % Blockage' is the percentage of sodium channel current (Nav 1.8 and Nav 1.7) inhibited at each concentration of the molecule evaluated. Data were obtained by nonlinear regression (nonlinear least squares) with XLfit for Excel (Microsoft, Redmond, WA).
(§11) The compounds were tested in at least one assay to obtain the value of CI50. For compounds that were tested in two or more assays, the results are described as the means of the CI50 values.

For experiment [2], the target named is T2, human sodium channels Nav 1.7 (Homo sapiens, UniProt Q15858).
T2 construct: expressed in transfected cells
Briefly: Automated whole-cell voltage-clamp (ScreenPatch 384P) on CHO cells stably expressing Nav 1.7. It counts as cell-based. Particulars: inactivation step -40 mV 8 s, test pulse 0 mV, room temperature, exposure at least five minutes, read-out: Nav1.7 IC50. As for the experimental part:
as §1, §2, §3, §4, §5, §6, §7, §8, §9, §10, §11

Where only a bound is given, the exact number is not on record here.

T1 sequence (Q9Y5Y9 whole entry): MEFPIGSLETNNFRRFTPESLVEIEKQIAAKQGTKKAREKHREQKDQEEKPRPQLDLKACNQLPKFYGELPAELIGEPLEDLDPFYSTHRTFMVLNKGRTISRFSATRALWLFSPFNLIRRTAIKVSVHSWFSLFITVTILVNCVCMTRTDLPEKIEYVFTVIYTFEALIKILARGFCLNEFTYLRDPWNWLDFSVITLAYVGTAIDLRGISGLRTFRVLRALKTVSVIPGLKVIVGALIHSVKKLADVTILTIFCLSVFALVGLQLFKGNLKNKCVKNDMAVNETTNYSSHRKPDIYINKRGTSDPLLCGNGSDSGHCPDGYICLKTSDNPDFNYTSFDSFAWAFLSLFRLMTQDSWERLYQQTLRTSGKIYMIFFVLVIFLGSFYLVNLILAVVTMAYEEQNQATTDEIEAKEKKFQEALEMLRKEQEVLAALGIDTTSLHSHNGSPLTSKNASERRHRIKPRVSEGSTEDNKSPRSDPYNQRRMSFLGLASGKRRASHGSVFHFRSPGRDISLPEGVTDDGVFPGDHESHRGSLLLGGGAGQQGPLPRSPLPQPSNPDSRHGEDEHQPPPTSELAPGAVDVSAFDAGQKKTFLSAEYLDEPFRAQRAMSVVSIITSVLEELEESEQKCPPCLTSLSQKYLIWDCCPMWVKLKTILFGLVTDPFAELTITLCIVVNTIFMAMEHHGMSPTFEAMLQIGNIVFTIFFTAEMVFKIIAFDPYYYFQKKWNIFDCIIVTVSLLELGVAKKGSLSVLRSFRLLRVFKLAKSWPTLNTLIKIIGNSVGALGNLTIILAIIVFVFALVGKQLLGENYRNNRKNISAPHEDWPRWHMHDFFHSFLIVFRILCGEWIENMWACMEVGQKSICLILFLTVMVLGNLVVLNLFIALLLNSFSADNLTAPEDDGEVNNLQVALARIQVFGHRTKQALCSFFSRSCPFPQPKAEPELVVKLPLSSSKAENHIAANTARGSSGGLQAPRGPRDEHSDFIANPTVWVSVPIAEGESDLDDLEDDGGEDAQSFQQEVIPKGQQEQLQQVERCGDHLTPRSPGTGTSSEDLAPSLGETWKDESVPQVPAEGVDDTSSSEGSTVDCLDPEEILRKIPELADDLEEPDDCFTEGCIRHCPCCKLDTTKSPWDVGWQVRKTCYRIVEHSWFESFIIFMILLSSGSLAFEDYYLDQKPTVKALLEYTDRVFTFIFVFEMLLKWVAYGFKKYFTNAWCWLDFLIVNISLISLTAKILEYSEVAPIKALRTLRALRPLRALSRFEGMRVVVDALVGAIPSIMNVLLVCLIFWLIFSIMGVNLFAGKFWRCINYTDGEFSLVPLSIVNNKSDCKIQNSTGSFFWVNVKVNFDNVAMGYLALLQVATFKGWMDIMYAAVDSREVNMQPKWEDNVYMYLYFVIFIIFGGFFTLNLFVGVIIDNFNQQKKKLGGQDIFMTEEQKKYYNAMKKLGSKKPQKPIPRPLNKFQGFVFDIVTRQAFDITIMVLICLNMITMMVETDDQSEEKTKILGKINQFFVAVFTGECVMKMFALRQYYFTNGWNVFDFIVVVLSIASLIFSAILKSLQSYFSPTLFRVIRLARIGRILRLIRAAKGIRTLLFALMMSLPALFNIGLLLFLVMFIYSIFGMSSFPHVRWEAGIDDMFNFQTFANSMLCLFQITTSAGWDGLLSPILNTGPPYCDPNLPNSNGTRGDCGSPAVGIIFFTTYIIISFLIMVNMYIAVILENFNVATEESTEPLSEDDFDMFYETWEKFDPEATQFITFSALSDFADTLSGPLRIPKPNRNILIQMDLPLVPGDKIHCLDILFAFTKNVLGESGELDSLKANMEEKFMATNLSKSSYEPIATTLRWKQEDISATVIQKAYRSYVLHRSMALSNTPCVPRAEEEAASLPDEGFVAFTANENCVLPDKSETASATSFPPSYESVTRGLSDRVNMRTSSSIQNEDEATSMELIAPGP
T2 sequence (Q15858 whole entry): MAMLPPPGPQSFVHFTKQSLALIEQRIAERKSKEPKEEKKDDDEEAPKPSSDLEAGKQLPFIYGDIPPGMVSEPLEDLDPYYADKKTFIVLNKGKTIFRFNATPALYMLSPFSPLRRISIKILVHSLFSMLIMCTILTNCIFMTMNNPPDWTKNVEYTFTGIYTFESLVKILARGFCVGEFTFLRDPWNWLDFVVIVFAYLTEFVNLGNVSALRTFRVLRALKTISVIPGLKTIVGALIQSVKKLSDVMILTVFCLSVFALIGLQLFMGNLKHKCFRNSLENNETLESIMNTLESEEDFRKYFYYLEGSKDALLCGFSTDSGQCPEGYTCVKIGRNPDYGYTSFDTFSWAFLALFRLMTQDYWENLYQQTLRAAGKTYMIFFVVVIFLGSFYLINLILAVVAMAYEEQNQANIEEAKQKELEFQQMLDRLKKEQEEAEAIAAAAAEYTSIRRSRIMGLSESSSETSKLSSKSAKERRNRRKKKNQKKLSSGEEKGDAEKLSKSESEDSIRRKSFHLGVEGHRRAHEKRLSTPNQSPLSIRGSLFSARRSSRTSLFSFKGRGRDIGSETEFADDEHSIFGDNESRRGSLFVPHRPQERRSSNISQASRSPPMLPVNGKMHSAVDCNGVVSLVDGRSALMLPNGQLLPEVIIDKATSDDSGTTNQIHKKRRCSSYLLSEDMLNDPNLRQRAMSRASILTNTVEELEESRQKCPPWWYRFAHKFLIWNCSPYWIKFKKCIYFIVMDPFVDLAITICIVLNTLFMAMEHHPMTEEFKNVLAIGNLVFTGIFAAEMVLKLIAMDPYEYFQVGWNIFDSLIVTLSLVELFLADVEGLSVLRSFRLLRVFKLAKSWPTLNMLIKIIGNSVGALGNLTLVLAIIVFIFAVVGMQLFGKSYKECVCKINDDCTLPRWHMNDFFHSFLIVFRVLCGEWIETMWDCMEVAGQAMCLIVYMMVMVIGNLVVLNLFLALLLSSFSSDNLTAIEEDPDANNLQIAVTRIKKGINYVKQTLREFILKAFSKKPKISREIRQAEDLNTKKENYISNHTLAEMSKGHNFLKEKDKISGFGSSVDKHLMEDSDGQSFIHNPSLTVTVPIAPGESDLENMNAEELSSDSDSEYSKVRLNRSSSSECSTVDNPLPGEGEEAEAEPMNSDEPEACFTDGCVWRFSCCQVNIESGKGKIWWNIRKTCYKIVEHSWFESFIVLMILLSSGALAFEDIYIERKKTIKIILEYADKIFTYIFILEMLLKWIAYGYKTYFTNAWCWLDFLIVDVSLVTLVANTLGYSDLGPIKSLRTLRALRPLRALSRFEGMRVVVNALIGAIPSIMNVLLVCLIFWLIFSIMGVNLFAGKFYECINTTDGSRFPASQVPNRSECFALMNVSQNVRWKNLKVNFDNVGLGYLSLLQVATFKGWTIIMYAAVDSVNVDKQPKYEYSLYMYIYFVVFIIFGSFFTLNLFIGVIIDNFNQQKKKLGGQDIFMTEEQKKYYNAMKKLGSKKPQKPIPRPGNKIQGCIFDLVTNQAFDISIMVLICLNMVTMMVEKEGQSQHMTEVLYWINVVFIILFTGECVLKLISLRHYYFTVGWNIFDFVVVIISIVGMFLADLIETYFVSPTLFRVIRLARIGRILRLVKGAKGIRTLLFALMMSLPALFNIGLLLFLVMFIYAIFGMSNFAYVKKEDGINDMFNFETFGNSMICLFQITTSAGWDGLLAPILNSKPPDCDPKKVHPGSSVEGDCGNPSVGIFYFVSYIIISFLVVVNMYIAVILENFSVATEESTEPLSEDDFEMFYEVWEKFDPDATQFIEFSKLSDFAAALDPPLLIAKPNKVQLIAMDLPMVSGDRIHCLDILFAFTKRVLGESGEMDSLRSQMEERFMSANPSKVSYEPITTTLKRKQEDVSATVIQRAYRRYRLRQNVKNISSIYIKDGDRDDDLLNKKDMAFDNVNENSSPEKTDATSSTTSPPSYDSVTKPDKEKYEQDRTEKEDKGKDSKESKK

What is called IC50 is the concentration that gives 50% inhibition. Turning to `COc1cc(/C=N/NC(=O)c2cncc(-c3ccc(O)cc3)n2)cc(OC)c1` [Compound 1, (E)-N′-(3,5-dimethoxybenzylidene)-6-(4-hydroxyphenyl)pyrazine-2-carbohydrazide], the IC50 in experiment [1] and in experiment [2] was over 1 µM each time.
Turning to `Cc1cc(C)cc(/C=N/NC(=O)c2cncc(-c3ccc(O)cc3)n2)c1` [Compound 2, (E)-N′-(3,5-dimethylbenzylidene)-6-(4-hydroxyphenyl)pyrazine-2-carbohydrazide], the IC50 in experiment [1] and in experiment [2] was over 1 µM each time.
With `COc1ccc(F)c(/C=N/NC(=O)c2cncc(-c3ccc(O)cc3)n2)c1` [Compound 3, (E)-N′-(2-fluoro-5-methoxybenzylidene)-6-(4-hydroxyphenyl)pyrazine-2-carbohydrazide], the IC50 in experiment [1] and in experiment [2] was over 1 µM in each case.
With `O=C(N/N=C/c1cncc(O)c1)c1cncc(-c2ccc(O)cc2)n1` [Compound 4, (E)-6-(4-hydroxyphenyl)-N′-((5-hydroxypyridine-3-yl)methylene)pyrazine-2-carbohydrazide], the IC50 in experiment [1] and in experiment [2] was over 1 µM throughout.
Regarding `COc1cc(/C=N/NC(=O)c2cncc(-c3ccc(OC)cc3O)n2)cc(OC)c1` [Compound 5, (E)-N′-(3,5-dimethoxybenzylidene)-6-(2-hydroxy-4-methoxyphenyl)pyrazine-2-carbohydrazide], the figures for the 50% inhibitory concentration (IC50) in experiment [1] and in experiment [2] were under 0.5 µM and over 1 µM, respectively.
On to `COc1cc(/C=N/NC(=O)c2cncc(-c3ccc(OC)c(O)c3)n2)cc(OC)c1` [Compound 6, (E)-N′-(3,5-dimethoxybenzylidene)-6-(3-hydroxy-4-methoxyphenyl)pyrazine-2-carbohydrazide], for which the IC50 in experiment [1] and in experiment [2] was over 1 µM throughout.
For the molecule `COc1ccc(-c2cncc(C(=O)N/N=C/c3cc(C)cc(C)c3)n2)c(O)c1` [Compound 7, (E)-N′-(3,5-dimethylbenzylidene)-6-(2-hydroxy-4-methoxyphenyl)pyrazine-2-carbohydrazide], the IC50 is under 0.5 µM in experiment [1] and over 1 µM in experiment [2].
For `CCOc1ccc(-c2cncc(C(=O)N/N=C/c3cc(OC)ccc3F)n2)c(O)c1` [Compound 8, (E)-6-(4-ethoxy-2-hydroxyphenyl)-N′-(2-fluoro-5-methoxybenzylidene)pyrazine-2-carbohydrazide] the same measures were 0.5 to 1 µM and over 1 µM.
The corresponding values for `CCOc1ccc(-c2cncc(C(=O)N/N=C/c3cc(OC)cnc3F)n2)c(O)c1` [Compound 9, (E)-6-(4-ethoxy-2-hydroxyphenyl)-N′-((2-fluoro-5-methoxypyridine-3-yl)methylene)pyrazine-2-carbohydrazide] are under 0.5 µM and over 1 µM.
For `COc1ccc(-c2nc(C(=O)N/N=C/c3cc(OC)cc(OC)c3)cnc2O)cc1` [Compound 12, (E)-N′-(3,5-dimethoxybenzylidene)-5-hydroxy-6-(4-methoxyphenyl)pyrazine-2-carbohydrazide] the same measures were over 1 µM and over 1 µM.
For the molecule `COc1ccc(-c2nc(C(=O)N/N=C/c3cc(C)cc(C)c3)cnc2O)cc1` [Compound 13, (E)-N′-(3,5-dimethylbenzylidene)-5-hydroxy-6-(4-methoxyphenyl)pyrazine-2-carbohydrazide], the IC50 in experiment [1] and in experiment [2] was over 1 µM in each case.
For the molecule `COc1ccc(-c2cnc(O)c(C(=O)N/N=C/c3cc(OC)cc(OC)c3)n2)cc1` [Compound 14, (E)-N′-(3,5-dimethoxybenzylidene)-3-hydroxy-6-(4-methoxyphenyl)pyrazine-2-carbohydrazide], the IC50 in experiment [1] and in experiment [2] was over 1 µM in each case.
Turning to `COc1ccc(-c2cnc(O)c(C(=O)N/N=C/c3cc(C)cc(C)c3)n2)cc1` [Compound 15, (E)-N′-(3,5-dimethylbenzylidene)-3-hydroxy-6-(4-methoxyphenyl)pyrazine-2-carbohydrazide], the IC50 in experiment [1] and in experiment [2] was over 1 µM in each case.
With `CCOc1ccc(-c2nc(C(=O)N/N=C/c3cc(OC)cnc3F)cnc2O)cc1` [Compound 16, (E)-6-(4-ethoxyphenyl)-N′-((2-fluoro-5-methoxypyridine-3-yl)methylene)-5-hydroxypyrazine-2-carbohydrazide], the IC50 in experiment [1] and in experiment [2] was over 1 µM each time.
With `CCOc1ccc(-c2nc(C(=O)N/N=C/c3cccc(OC)c3)cnc2O)c(F)c1` [Compound 18, (E)-6-(4-ethoxy-2-fluorophenyl)-5-hydroxy-N′-(3-methoxybenzylidene)pyrazine-2-carbohydrazide], the IC50 in experiment [1] and in experiment [2] was over 1 µM throughout.
For `CCOc1ccc(-c2cnc(O)c(C(=O)N/N=C/c3cccc(OC)c3)n2)c(F)c1` [Compound 19, (E)-6-(4-ethoxy-2-fluorophenyl)-3-hydroxy-N′-(3-methoxybenzylidene)pyrazine-2-carbohydrazide], the IC50 in experiment [1] and in experiment [2] was over 1 µM each time.
For the molecule `COc1ccc(-c2cncc(C(=O)N/N=C/c3cc(O)cc(O)c3)n2)cc1` [Compound 20, (E)-N′-(3,5-dihydroxybenzylidene)-6-(4-methoxyphenyl)pyrazine-2-carbohydrazide], the IC50 in experiment [1] and in experiment [2] was over 1 µM each time.
For the molecule `COc1ccc(-c2cncc(C(=O)N/N=C/c3cc(O)cc(OC)c3)n2)cc1` [Compound 21, (E)-N′-(3-hydroxy-5-methoxybenzylidene)-6-(4-methoxyphenyl)pyrazine-2-carbohydrazide], the IC50 in experiment [1] and in experiment [2] was over 1 µM throughout.
On to `COc1ccc(-c2cncc(C(=O)N/N=C/c3ccc(O)cc3)n2)cc1` [Compound 22, (E)-N′-(4-hydroxybenzylidene)-6-(4-methoxyphenyl)pyrazine-2-carbohydrazide], for which the IC50 in experiment [1] and in experiment [2] was over 1 µM throughout.
As for `COc1ccc(-c2cncc(C(=O)N/N=C/c3cccc(O)c3)n2)cc1` [Compound 23, (E)-N′-(3-hydroxybenzylidene)-6-(4-methoxyphenyl)pyrazine-2-carbohydrazide], the IC50 in experiment [1] and in experiment [2] was over 1 µM throughout.
Turning to `COc1ccc(-c2cncc(C(=O)N/N=C/c3ccccc3O)n2)cc1` [Compound 24, (E)-N′-(2-hydroxybenzylidene)-6-(4-methoxyphenyl)pyrazine-2-carbohydrazide], the IC50 in experiment [1] and in experiment [2] was over 1 µM in each case.
Regarding `COc1ccc(-c2cncc(C(=O)N/N=C/c3cc(C)cc(O)c3)n2)cc1` [Compound 25, (E)-N′-(3-hydroxy-5-methylbenzylidene)-6-(4-methoxyphenyl)pyrazine-2-carbohydrazide], the IC50 in experiment [1] was 0.5 to 1 µM; in experiment [2] it was over 1 µM.
For `CCOc1ccc(-c2cncc(C(=O)N/N=C/c3cc(C)cc(O)c3)n2)cc1` [Compound 26, (E)-6-(4-ethoxyphenyl)-N′-(3-hydroxy-5-methylbenzylidene)pyrazine-2-carbohydrazide] the same measures were under 0.5 µM and over 1 µM.
For `CCOc1ccc(-c2cncc(C(=O)N/N=C/c3cc(O)ccc3F)n2)cc1` [Compound 27, (E)-6-(4-ethoxyphenyl)-N′-(2-fluoro-5-hydroxybenzylidene)pyrazine-2-carbohydrazide] the same measures were 0.5 to 1 µM and over 1 µM.
The corresponding values for `CCOc1ccc(-c2cncc(C(=O)N/N=C/c3cc(OC)ccc3O)n2)cc1` [Compound 28, (E)-6-(4-ethoxyphenyl)-N′-(2-hydroxy-5-methoxybenzylidene)pyrazine-2-carbohydrazide] are under 0.5 µM and over 1 µM.
Consider `CCOc1ccc(-c2cncc(C(=O)N/N=C/c3cncc(O)c3)n2)cc1` [Compound 29, (E)-6-(4-ethoxyphenyl)-N′-((5-hydroxypyridine-3-yl)methylene)pyrazine-2-carbohydrazide], for which the IC50 in experiment [1] and in experiment [2] was over 1 µM throughout.
